The subject of one test is HepG2 cells. Description: Oxidation of 14C-palmitate in HepG2 cells. As to conditions: resveratrol 10 μM in 1% DMSO, AICAR 500 μM in H2O, metformin 1 mM in H2O; 4 hours; vehicle = 1. Format: cell-based. How it is done: (§1) Oxidation of 14C-palmitate to acid-soluble products (modified from H4IIEC3 cells [Witters, L. A. and B. E. Kemp, Insulin activation of acetyl-CoA carboxylase accompanied by inhibition of the 5′-AMP-activated protein kinase. J Biol Chem, 1992. 267(5): p. 2864-7] and HepG2 cells were maintained as described above. Cells (10^6 cells/T25) were seeded in a T25 flask one day prior to the experiment. On the day of the experiment cells were washed with assay buffer (114 mM NaCl, 4.7 mM KCL, 1.2 mM KH2PO4, 1.2 mM MgSO4, 11 mM glucose) before labeling with 14C-palmitate (0.4 μCi/ml) in presence of vehicle, or resveratrol (10 μM), or AICAR (500 μM) for 4 hours.
(§2) At the end of incubation, the cap of each T25 flask was replaced with a stopper and a 1′×1.5″ Whatman filter paper soaked with 250 μl 2N NaOH. Each flask was injected with 2 ml of 6N HCL, placed in a horizontal position for 10 minutes and left standing overnight. The next morning, 1 ml H2O and 61 μl NaOH were added to a glass scintillation vial and the filter papers from each T25 flask were transferred to their respective vial. 10 ml Aquasol was added to each vial and allowed to stand for 2 hours, after which the vials were vortexed to dissolve the […] and counted in the scintillation counter. The results were expressed as nmols/h/106 cells and shown as the fold effect. ^14CO2 production ranged from 0.3 to 1.8 nmols/h/106 cells. The experiment was repeated three times.

For a further test, the system named is H4IIEC3 cells. Kind of test: Oxidation of 14C-palmitate in H4IIEC3 cells. Format: cell-based. As to conditions: resveratrol 10 μM in 1% DMSO, AICAR 500 μM in H2O, metformin 1 mM in H2O; 4 hours; vehicle = 1. How it is done:
as §1, §2

For test [1], the system named is Wild-type N2 C. elegans worms. Kind of test: Nile Red staining of fat accumulation in wild-type N2 C. elegans. In kind it is in vivo. As to conditions: overnight. The method, then: Wild-type N2 C. elegans worms were grown on OP50 bacteria and exposed overnight to vehicle (0.1% ethanol) alone or with 10, 50 or 100 μM of resveratrol (in ethanol). Fat accumulation was visualized with Nile Red staining, as described further below and in Ashrafi K, et al. Nature 421:268-27 (2003).
(§3) Synchronized starved L1 worms were grown in the presence of Nile Red. Strains were grown on NGM plates at 25° C. for approximately 48 hours until the young adult stage was reached. 20-30 young adult worms were then washed 2× with M9 buffer and transferred to new NGM/Nile red experimental plates that contained either OP50 or HTT5 E. coli carrying the L4440 RNAi control vector. For experiments comparing the effect of nicotinamide and resveratrol on fat mobilization, OP50 plates were coated with vehicle alone or Nicotinamide (in PBS), or vehicle alone and Resveratrol (in Ethanol or DMSO).
Resveratrol (Indofine #024964) was dissolved in Ethanol or DMSO to a 10 mM stock solution. Resveratrol was added to 60 mm NGM agar dishes containing either OP50 or RNAi expressing bacteria (HT115) to a final concentration of 10 μm, 50 μm, and 100 μM. Nile Red was also added to plates to a final concentration of 0.05 μg/ml. Nicotinamide (Supelco #47865-U) was diluted in PBS including Nile Red and added to […] dishes containing OP50 to a final concentration of 1 mM, 10 mM, or 100 mM.
Nile Red: Nile Red Powder (Sigma #N-3013) was dissolved in acetone at 500 μg/ml, diluted in 1× Phosphate Buffered Saline (PBS) including appropriate drug and applied to surface of Nematode Growth Media (NGM) plates previously seeded with OP50 or RNAi bacteria, at a final concentration of 0.05 μg/ml. Fat content was monitored and recorded by fluorescence microscopy.
Nile Red Staining was visualized by using a Nikon TE2000S microscope equipped with a CY3 filter (emission 535-685 nm). Images were captured using a SPOT RT monochrome digital camera attached to the Nikon Microscope with SPOT RT software v3.5. All Nile red images were acquired using identical settings and exposure times and then changed to red palette.

In test [2] the test system is AMPK and ACC phosphorylation. Kind of test: Western blot of AMPK and ACC phosphorylation in mouse embryonic fibroblasts. In kind it is cell-based. As to conditions: LKB1−/− cells; 50, 100, 200 μM. How it is done: Similar results were also observed in mouse embryonic fibroblast (MEFs). […] Cells in the left panel were incubated overnight without serum before harvesting; the cells on the right were not incubated under serum free conditions. […] Tubulin served as a loading control.
On the technique in general: In western blotting, separated proteins are transferred to a membrane and probed.

The test system of test [3] is DAF-16 mutant worms (mgDf47). Description: Nile Red staining of fat accumulation in DAF-16 mutant worms (mgDf47). In kind it is in vivo, C. elegans. As to conditions: defective in insulin-signaling. The method, then:
Sir2.1, which is activated by resveratrol, acts via the transcription factor DAF-16 to prolong lifespan in […] (Tissenbaum and Guarente (2001) Nature 410:227).
C. elegans strains were maintained as described at 25° C., except when noted (Brenner (1974) Genetics 77:71). The wild type reference strain was N2 Bristol; the mutant strains were: sir-2.1(ok434), T01C8.1(ok524), and daf-16 (mgDf47). Daf-16 (mgDf47) was obtained from the Ruvkun laboratory, MGH; all other strains were obtained from the Caenorhabditis Genetics Center (from C. Elegans Gene Knockout Consortium).
as §3

For the next test, the system named is PPAR-γ. Kind of test: Expression of the adipogenic transcription regulator PPAR-γ in 3T3 cells. Format: cell-based. As to conditions: cells exposed to resveratrol during differentiation. From the text: AICAR stimulates AMPK signaling and inhibits adipogenesis in 3T3 cells. To distinguish whether the effect of resveratrol was to inhibit differentiation or mobilize fat from 3T3 cells, we examined whether resveratrol inhibited the expression of adipogenic transcription regulators such as PPAR-γ.

The subject of test [4] is phosphorylation of AMPK on threonine 172 and of ACC on serine 79. Kind of test: Western analysis of AMPK and ACC phosphorylation in CHO-HIR cells. Format: cell-based. How it is done:
CHO-HIR mammalian cells were washed in PBS and incubated overnight in serum-free DMEM before treatment with 500 μM AICAR (positive control) or 12.5 μM, 25 μM or 50 μM resveratrol. Cells were harvested after 30 minutes and lysates were immediately boiled in SDS and subjected to Western analysis with site-specific antibodies. Phosphorylation of AMPK at Thr172 indicates activation of the kinase. Active AMPK phosphorylates and inactivates ACC at serine 79.
CHO cells were also treated with 500 μM AICAR (positive control), DMSO, 100 nM, 500 nM, 2.5 μM, 12.5 μM, 25 μM, or 50 μM resveratrol and subject to Western Blot analysis as described above. Western blots were stripped and re-probed for phosphorylated (active) AMPK, total AMPK, phosphorylated acetyl CoA carboxylase (ACC), which is the downstream target of AMPK, and tubulin, which served as a loading control.

Test [5] deals with Wild-type N2 C. elegans worms. Description: Nile Red staining of fat accumulation in wild-type N2 C. elegans. In kind it is in vivo. As to conditions: 100 μM, L1 animals, 48 hours, control 2.5% v/v DMSO.

“Also recorded” adds a separate entry of the source.

Consider `Oc1ccc(/C=C/c2cc(O)cc(O)c2)cc1` [resveratrol, 3,5,4′-Trihydroxy-trans-stilbene], for which the results for the “14C-CO2 production (Fold Effect)” value in the test on HepG2 cells and in the test with H4IIEC3 cells were 6 Fold Effect and 2.3 Fold Effect, respectively. For the same molecule, in test [1] (10 μM or 50 μM), the fat accumulation entry was “marked decrease in fat accumulation”. Moreover, the “reduction of fat accumulation” value in test [1] (100 μM) is reported as 90%. Moreover, in test [2], the “AMPK and ACC phosphorylation” value was “still causes an upregulation of both AMPK and ACC phosphorylation”. The “fat mobilization and fat accumulation” value in test [3] is “stimulates fat mobilization and a decrease in fat accumulation”. Moreover, the “PPAR-γ RNA / expression” value with PPAR-γ is “did not show an increase in PPAR-γ RNA; also recorded: marked decrease in PPARγ expression”. In addition, the “activation of AMPK (phosphorylated AMPK and ACC)” value in test [4] (CHO cells, 100 nM, 500 nM, 2.5, 12.5, 25 or 50 μM) is “activation of AMPK in CHO cells with increasing concentrations of resveratrol”. Besides, the “phosphorylation of AMPK (threonine 172) and ACC (serine 79)” value in test [4] (resveratrol 12.5, 25 or 50 μM, AICAR 500 μM (positive control), 30 minutes, serum-free overnight) was “stimulates phosphorylation of AMPK and ACC”. Also, the fat staining result in test [5] is “Significant reduction of fat staining”.
